From patent publication US20090048185A1, “Therapeutic Drug for Suppressing Functions of NKT Cells Containing Glycolipid Derivative as Active Ingredient” (priority 2005, published 2009)

How the values were obtained:
[1] = system: collagen induced arthritis (CIA); conditions: literature (Chiba et al., Arthritis Rheum. 2004); cited from earlier work
[2] = system: experimental autoimmune encephalomyelitis (EAE); conditions: literature (Miyamoto et al., Nature 2001); cited from earlier work
NKT cells = assay: Effect of the compound on NKT cells (liver mononuclear cells incubated with compound); format: cell-based, C57BL/6J mice; conditions: 48 hours incubation, FIG. 4
Experimental: Mononuclear cells were isolated from the liver of C57BL/6J mice (8 weeks old, female) and are incubated with the compound for 48 hours.

Compound | suppression of diseases in CIA [1] | suppression of diseases in EAE [2] | IFN-γ production (ELISA, supernatant) (NKT cells) | IL-4 production (ELISA, supernatant) (NKT cells) | cell proliferation (uptake of tritium thymidine) (NKT cells)
CCCCCCCCCCCCCCCCCCCCCCCC(=O)N[C@@H](COC1OC(CO)C(O)C(O)C1O)[C@H](O)[C@H](O)CCCCC (some centres unmarked) [OCH] | high effectiveness | high effectiveness |  |  | 
CCCCCCCCCCCCCCCCCCCCCCCCCC(=O)N[C@@H](COC1OC(CO)C(O)C(O)C1O)[C@H](O)[C@H](O)CCCCCCCCCCCCCC (stereo partly drawn) [α-GC, α-galactosyl ceramide] |  |  | induced | induced | induced
